{"source": "patent US5034528A", "about": "“Compositions for the control of hyperlipidemia” (North Carolina Central University, priority 1988, dated 1991)", "key": {"[1]": {"tested_on": "serum cholesterol and serum triglyceride levels", "assay": "Testing of hyperlipidemic mice: serum cholesterol and serum triglyceride levels on atherogenic diet", "type": "in vivo", "conditions": "hyperlipidemic CF1 male mice, 20 mg/kg/d ip, Day 12; diet-hyperlipidemic = 100", "protocol": "A group of six CF1 male mice (about 25 g) were placed on a commercial diet (U.S. Biochemical Corporation BAsal Atherogenic Test Diet) which produced a \"hyperlipidemic\" state. That is, the average serum cholesterol level in the group of treated mice was raised from 122 to 375 mg percent and triglyceride levels were raised from 137 to 367 mg/dL."}, "[2]": {"tested_on": "serum cholesterol and triglyceride levels", "assay": "Serum testing of normal rats: serum cholesterol and triglyceride levels, oral", "type": "in vivo", "conditions": "Sprague-Dawley male rats, 20 mg/kg/day orally", "description": "Test solution of Compounds A, F, J, M, N and O were suspended in an aqueous solution of 1% CMC, homogenized and administered orally to six Sprague-Dawley male rats, which each weighted approximately 350 grams. Administration of the compounds was by an intubation needle. The rats were each fed with 20 milligrams of Compounds A, F, J, M, N and O per kilogram of body weight per day for 14 days. Similarly, six Sprague-Dawley male rats of approximately the same weight (that used for testing F weighed approximately 160 grams) were fed similar volumes of the same aqueous 1% CMC solution without the active agents, also orally, administered by intubation needle. In addition, as a control, a similar group of six male Sprague-Dawley rats were untreated.\nOn Days 7 and 14, blood was obtained from each of the rats of the three groups by tail vein bleeding. The blood obtained was separated by centrifugation for three minutes. Serum cholesterol and triglyceride levels were determined in accordance with the procedure of Example 6."}, "[3]": {"tested_on": "cholesterol content of serum lipoprotein (VLDL, LDL, HDL)", "assay": "Cholesterol content of serum lipoprotein of rats treated orally for 14 days", "type": "in vivo", "conditions": "Sprague-Dawley rats, orally 14 days, 20 mg/kg/day; control 1% CMC = 100", "protocol": "The cholesterol content of serum lipoprotein of\nSprague-Dawley Rats treated orally for 14 days at 20 mg/kg/day"}, "[4]": {"tested_on": "serum cholesterol and serum triglyceride levels", "assay": "Testing of normal mice: serum cholesterol and serum triglyceride levels, compounds 20 mg/kg/d ip for 16 days", "type": "in vivo", "conditions": "CF1 male mice; for response vs control in vivo at 20 mg/kg/day: Mus musculus", "protocol": "The following compounds were tested for their hypolipidemic activity in CF1 mice.\nCompounds A-V as defined above, were suspended in an aqueous 1 percent carboxymethylcellulose (CMC) solution and homogenized. Each of the so prepared compounds were administered to a group of six CF1 male mice, each weighing approximately 25 grams, intra-peritioneally for 16 days. Each of these compounds were provided in a dosage of 20 mg/kg/d ip. On Days 9 and 16 blood was obtained by tail vein bleeding. The blood serum so obtained was separated by centrifugation for three minutes. Serum cholesterol levels were determined by a modification of the Liebermann-Burchard reaction (Ness, Clin. Chim. Acta., Vol. 10, 229 [1964]). Serum triglyceride levels were determined on Day 16 by use of the Fisher, Hycel Triglyceride Test Kit.\nIn addition to the above-described treated mice, an untreated control group of six mice were similarly tested on Days 9 and 16 to determine their serum cholesterol and trigylceride blood levels. Based on the results obtained for the untreated control group, the percent control, based on serum cholesterol and serum triglyceride levels of the treated mice compared to the untreated mice, was obtained. Table 1 reports this percent control, including standard deviation, indicating the level of confidence of these numbers."}, "[5]": {"assay": "in vivo", "conditions": "mouse, ip"}, "[6]": {"tested_on": "mice", "assay": "LD50 in mice as single injection IP"}, "[7]": {"conditions": "216 h, Day 9, ± standard deviation, read-out: Serum Cholesterol, Day 9 (percent control)"}, "[8]": {"conditions": "384 h, Day 16, ± standard deviation, read-out: Serum Cholesterol, Day 16 (percent control)"}, "[9]": {"conditions": "384 h, Day 16, ± standard deviation, read-out: Serum Triglyceride, Day 16 (percent control)"}}, "note": "Like-named read-outs stand apart in the source and are kept apart here."}
{"smiles": "CC(=O)n1[nH]c(=O)n(-c2ccccc2)c1=O", "note": "[A, 4-phenyl-1-methylcarbonyl-1,2,4-triazolidine-3,5-dione]", "values": [{"measurement": "Serum Cholesterol, Percent of Control, hyperlipidemic mice", "setting": "[1]", "result": "41% of Control"}, {"measurement": "Serum Triglyceride, Percent of Control, hyperlipidemic mice", "setting": "[1]", "result": "40% of Control"}, {"measurement": "Serum Cholesterol, Day 7, Percent of Control", "setting": "[2]", "result": "89% of Control"}, {"measurement": "Serum Triglyceride, Day 7, Percent of Control", "setting": "[2]", "result": "62% of Control"}, {"measurement": "Serum Cholesterol, Day 14, Percent of Control", "setting": "[2]", "result": "69% of Control"}, {"measurement": "Serum Triglyceride, Day 14, Percent of Control", "setting": "[2]", "result": "48% of Control"}, {"measurement": "HDL cholesterol, Percent of Control", "setting": "[3]", "result": "441% of Control"}, {"measurement": "LDL cholesterol, Percent of Control", "setting": "[3]", "result": "74% of Control"}, {"measurement": "VLDL cholesterol, Percent of Control", "setting": "[3]", "result": "44% of Control"}]}
{"smiles": "O=C(Nc1ccccc1)n1[nH]c(=O)n(-c2ccccc2)c1=O", "note": "[I, 4-phenyl-1-N-phenylcarbamoyl-1,2,4-triazolidine-3,5-dione]", "values": [{"measurement": "response vs control in vivo at 20 mg/kg/day", "setting": "[4]; [7]", "result": "79 ± 7", "unit": "%"}, {"measurement": "response vs control in vivo at 20 mg/kg/day", "setting": "[4]; [8]", "result": "74 ± 6", "unit": "%"}, {"measurement": "response vs control in vivo at 20 mg/kg/day", "setting": "[4]; [9]", "result": "68 ± 6", "unit": "%"}]}
{"smiles": "O=c1[nH][nH]c(=O)n1-c1ccc(Cl)cc1", "note": "[J, 4-(4-chlorophenyl)-1,2,4-triazolidine-3,5-dione]", "values": [{"measurement": "Serum Cholesterol, Percent of Control, hyperlipidemic mice", "setting": "[1]", "result": "46% of Control"}, {"measurement": "Serum Triglyceride, Percent of Control, hyperlipidemic mice", "setting": "[1]", "result": "49% of Control"}, {"measurement": "Serum Cholesterol, Day 7, Percent of Control", "setting": "[2]", "result": "59% of Control"}, {"measurement": "Serum Triglyceride, Day 7, Percent of Control", "setting": "[2]", "result": "61% of Control"}, {"measurement": "Serum Cholesterol, Day 14, Percent of Control", "setting": "[2]", "result": "60% of Control"}, {"measurement": "Serum Triglyceride, Day 14, Percent of Control", "setting": "[2]", "result": "52% of Control"}, {"measurement": "HDL cholesterol, Percent of Control", "setting": "[3]", "result": "194% of Control"}, {"measurement": "LDL cholesterol, Percent of Control", "setting": "[3]", "result": "43% of Control"}, {"measurement": "VLDL cholesterol, Percent of Control", "setting": "[3]", "result": "98% of Control"}]}
{"smiles": "CCOC(=O)C1n2c(=O)n(-c3ccc(Cl)cc3)c(=O)n21", "note": "[L, 3-(4-chlorophenyl)-6-ethoxyacarbonyl-1,3,5-triazabicyclo[3.1.0]hexane-2,4-dione]", "values": [{"measurement": "Serum Cholesterol, Day 9 (percent control)", "setting": "[4]; Day 9, ± standard deviation", "result": "74 ± 3", "unit": "percent control"}, {"measurement": "Serum Cholesterol, Day 16 (percent control)", "setting": "[4]; Day 16, ± standard deviation", "result": "56 ± 5", "unit": "percent control"}, {"measurement": "Serum Triglyceride, Day 16 (percent control)", "setting": "[4]; Day 16, ± standard deviation", "result": "66 ± 7", "unit": "percent control"}]}
{"smiles": "CCOC(=O)c1nc(=O)n(-c2ccc(Cl)cc2)c(=O)[nH]1", "note": "[O, 3-(4-chlorophenyl)-6-ethoxycarbonyl-1,3,5-triazine-2,4(1H,3 --H)-dione]", "values": [{"measurement": "Serum Cholesterol, Day 7, Percent of Control", "setting": "[2]", "result": "84% of Control"}, {"measurement": "Serum Triglyceride, Day 7, Percent of Control", "setting": "[2]", "result": "82% of Control"}, {"measurement": "Serum Cholesterol, Day 14, Percent of Control", "setting": "[2]", "result": "60% of Control"}, {"measurement": "Serum Triglyceride, Day 14, Percent of Control", "setting": "[2]", "result": "77% of Control"}, {"measurement": "HDL cholesterol, Percent of Control", "setting": "[3]", "result": "113% of Control"}, {"measurement": "LDL cholesterol, Percent of Control", "setting": "[3]", "result": "78% of Control"}, {"measurement": "VLDL cholesterol, Percent of Control", "setting": "[3]", "result": "27% of Control"}]}
{"smiles": "CCCCCC(=O)n1c(=O)n(CCCC)c(=O)n1C(=O)CCCCC", "note": "[T, 4-(4-n-butyl)-1,2 dipentylcarbonyl-1,2,4-triazolidine-3,5-dione]", "values": [{"measurement": "response vs control in vivo at 20 mg/kg/day", "setting": "[4]; [7]", "result": 69, "unit": "%"}, {"measurement": "response vs control in vivo at 20 mg/kg/day", "setting": "[4]; [8]", "result": 49, "unit": "%"}, {"measurement": "response vs control in vivo at 20 mg/kg/day", "setting": "[4]; [9]", "result": 53, "unit": "%"}]}
{"smiles": "CCOC(=O)c1nc(=O)n(-c2ccccc2)c(=O)[nH]1", "note": "[Compound N, 3-phenyl-6-ethoxycarbonyl-1,3,5-triazine-2,4(1 --H,3 --H)-dione]", "values": [{"measurement": "Serum Cholesterol, Percent of Control, hyperlipidemic mice", "setting": "[1]", "result": "50% of Control"}, {"measurement": "Serum Triglyceride, Percent of Control, hyperlipidemic mice", "setting": "[1]", "result": "46% of Control"}, {"measurement": "Serum Cholesterol, Day 7, Percent of Control", "setting": "[2]", "result": "71% of Control"}, {"measurement": "Serum Triglyceride, Day 7, Percent of Control", "setting": "[2]", "result": "61% of Control"}, {"measurement": "Serum Cholesterol, Day 14, Percent of Control", "setting": "[2]", "result": "67% of Control"}, {"measurement": "Serum Triglyceride, Day 14, Percent of Control", "setting": "[2]", "result": "53% of Control"}, {"measurement": "HDL cholesterol, Percent of Control", "setting": "[3]", "result": "409% of Control"}, {"measurement": "LDL cholesterol, Percent of Control", "setting": "[3]", "result": "87% of Control"}, {"measurement": "LD50", "setting": "[5]", "result": "> 500", "unit": "mg/kg"}]}
{"smiles": "COc1ccc(-n2c(=O)[nH][nH]c2=O)cc1", "note": "[F, 4-(4-methoxyphenyl)-1,2,4-triazolidine-3,5-dione]", "values": [{"measurement": "Serum Cholesterol, Day 7, Percent of Control", "setting": "[2]", "result": "77% of Control"}, {"measurement": "Serum Triglyceride, Day 7, Percent of Control", "setting": "[2]", "result": "87% of Control"}, {"measurement": "Serum Cholesterol, Day 14, Percent of Control", "setting": "[2]", "result": "66% of Control"}, {"measurement": "Serum Triglyceride, Day 14, Percent of Control", "setting": "[2]", "result": "81% of Control"}, {"measurement": "HDL cholesterol, Percent of Control", "setting": "[3]", "result": "141% of Control"}, {"measurement": "LDL cholesterol, Percent of Control", "setting": "[3]", "result": "78% of Control"}, {"measurement": "VLDL cholesterol, Percent of Control", "setting": "[3]", "result": "59% of Control"}]}
{"smiles": "CCOC(=O)C1n2c(=O)n(-c3ccccc3)c(=O)n21", "note": "[M, 3-phenyl-6-ethoxycarbonyl-1,3,5-triazabicyclo[3.1.0]hexane-2,4-dione]", "values": [{"measurement": "Serum Cholesterol, Day 9 (percent control)", "setting": "[4]; Day 9, ± standard deviation", "result": "62 ± 6", "unit": "percent control"}, {"measurement": "Serum Cholesterol, Day 16 (percent control)", "setting": "[4]; Day 16, ± standard deviation", "result": "57 ± 5", "unit": "percent control"}, {"measurement": "Serum Triglyceride, Day 16 (percent control)", "setting": "[4]; Day 16, ± standard deviation", "result": "59 ± 6", "unit": "percent control"}, {"measurement": "Serum Cholesterol, Percent of Control, hyperlipidemic mice", "setting": "[1]", "result": "46% of Control"}, {"measurement": "Serum Triglyceride, Percent of Control, hyperlipidemic mice", "setting": "[1]", "result": "54% of Control"}, {"measurement": "Serum Cholesterol, Day 7, Percent of Control", "setting": "[2]", "result": "70% of Control"}, {"measurement": "Serum Triglyceride, Day 7, Percent of Control", "setting": "[2]", "result": "36% of Control"}, {"measurement": "Serum Cholesterol, Day 14, Percent of Control", "setting": "[2]", "result": "36% of Control"}, {"measurement": "Serum Triglyceride, Day 14, Percent of Control", "setting": "[2]", "result": "54% of Control"}, {"measurement": "HDL cholesterol, Percent of Control", "setting": "[3]", "result": "340% of Control"}, {"measurement": "LDL cholesterol, Percent of Control", "setting": "[3]", "result": "67% of Control"}, {"measurement": "VLDL cholesterol, Percent of Control", "setting": "[3]", "result": "71% of Control"}, {"measurement": "LD50 value in mice as single injection IP", "setting": "[6]", "result": "> 500", "unit": "mg/kg"}]}
